{
  "source": "patent US12678407B2",
  "about": "(HANMI PHARM. CO., LTD., priority 2020, dated 2026)",
  "origin": "cited, not measured here",
  "conditions": "according to FDA Clinical Pharmacology Biopharmaceutics Review",
  "data": [
    {"smiles": "CCOc1ccc(Cc2cc([C@@H]3O[C@H](CO)[C@@H](O)[C@H](O)[C@H]3O)ccc2Cl)cc1", "note": "[dapagliflozin, (2S,3R,4R,5S,6R)-2-[4-chloro-3-(4-ethoxybenzyl)phenyl]-6-(hydroxymethyl)tetrahydro-2H-pyran-3,4,5-triol]", "values": [
      {"measurement": "bioavailability", "result": 87, "unit": "%"}
    ]},
    {"smiles": "N[C@@H](CC(=O)N1CCn2c(nnc2C(F)(F)F)C1)Cc1cc(F)c(F)cc1F", "note": "[sitagliptin, (R)-3-amino-1-(3-(trifluoromethyl)-5,6-dihydro-[1,2,4]triazole[4,3-a]pyrazin-7(8H)-yl)-4-(2,4,5-trifluorophenyl)butan-1-one]", "values": [
      {"measurement": "bioavailability", "result": 78, "unit": "%"}
    ]}
  ]
}
